Experimental findings from US11884671B2, “Purinone compounds and their use in treating cancer” (ASTRAZENECA AB, priority 2018, dated 2024) are described below.

The target in one test is AURKB (Aurora B) (Homo sapiens (Human), UniProt Q96GD4). The experiment in a line: Aurora-B enzyme assay (Z'-LYTE). The class given is biochemical. As to conditions: 75 μM ATP, arithmetic mean of two or more experiments; for IC50: read-out: AurB enz pIC50 (converted). Here is the method:
(§1) The inhibitory activity of compounds against AURKA, AURKB, JAK1, JAK2 and JAK3 was determined in Z′-LYTE® assays run by ThermoFisher Scientific as part of their SelectScreen® Biochemical Kinase Profiling Service. The Z′-LYTE® biochemical assay format employs a fluorescence-based, coupled-enzyme format and is based on the differential sensitivity of phosphorylated and non-phosphorylated peptides to proteolytic cleavage. The peptide substrate is labeled with two fluorophores—one at each end—that make up a FRET pair. In the primary reaction, the kinase transfers the gamma-phosphate of ATP to a single tyrosine, serine or threonine residue in a synthetic FRET-peptide. In the secondary reaction, a site-specific protease recognises and cleaves non-phosphorylated FRET-peptides. Phosphorylation of FRET-peptides suppresses cleavage by the Development Reagent. Cleavage disrupts FRET between the donor (i.e., coumarin) and acceptor (i.e., fluorescein) fluorophores on the FRET-peptide, whereas uncleaved, phosphorylated FRET-peptides maintain FRET. A ratiometric method, which calculates the ratio (the Emission Ratio) of donor emission to acceptor emission after excitation of the donor fluorophore at 400 nm, is used to quantitate reaction progress. Both cleaved and uncleaved FRET-peptides contribute to the fluorescence signals and therefore to the Emission Ratio. The extent of phosphorylation of the FRET-peptide can be calculated from the Emission Ratio.
(§2) 10 point three-fold dilution compound concentration-response curves, with a top concentration of 10 μM were generated from 10 mM stocks of compound solubilised in DMSO. All assays were performed in black, non-binding, low volume Corning 384-well plates (cat. #4514, Corning), in a total reaction volume of 10 μL and 1% (v/v) final DMSO concentration. […] The kinase reaction was then quenched by the addition of 5 μL of Development Reagent (ThermoFisher Scientific proprietary). […] IC50 values were calculated using XLfit software (IDBS Ltd, Surrey, UK), with the curve fit to model number 205 (sigmoidal dose-response model).
Aurora B (AurB): The 2×AURKB (Aurora B)/Ser/Thr 01 (ThermoFisher Scientific proprietary) mixture was prepared in 50 mM HEPES pH 7.5, 0.01% BRIJ-35, 10 mM MgCl2, 1 mM EGTA. […] After the 1 hour Kinase Reaction incubation, 5 μL of a 1:4096 dilution of Development Reagent was added.

The next test addresses AURKA (Aurora A) (Homo sapiens (Human), UniProt O14965). The experiment in a line: Aurora-A enzyme assay (Z'-LYTE). The class given is biochemical. As to conditions: 10 μM ATP, arithmetic mean of two or more experiments; for IC50: read-out: AurA enz pIC50 (converted). Here is the method: as §1, §2
Aurora A (AurA): The 2×AURKA (Aurora A)/Ser/Thr 01 (ThermoFisher Scientific proprietary) mixture was prepared in 50 mM HEPES pH 7.5, 0.01% BRIJ-35, 10 mM MgCl2, 1 mM EGTA. […] After the 1 hour Kinase Reaction incubation, 5 μL of a 1:4096 dilution of Development Reagent was added.

A further test deals with TTK (Homo sapiens (Human), UniProt P33981). The experiment in a line: TTK enzyme assay (LanthaScreen Eu Kinase Binding). To be noted: arithmetic mean of two or more experiments; for IC50: read-out: TTK enz pIC50 (converted). Here is the method: The inhibitory activity of compounds against TTK was determined in a LanthaScreen® Eu Kinase Binding assay run by ThermoFisher Scientific as part of their SelectScreen® Biochemical Kinase Profiling Service. The LanthaScreen® Eu Kinase Binding assay format uses binding of an Alexa Fluor® conjugate or “tracer” to a kinase, which is detected by addition of a Eu-labeled anti-tag antibody. […] The degree of FRET measured in the assay is used to determine the binding of a compound.
10 point three-fold dilution compound concentration-response curves, with a top concentration of 10 μM were generated from 10 mM stocks of compound solubilised in DMSO. All assays were performed in white, low volume Greiner 384-well plates (cat. #784207, Greiner), in a total reaction volume of 16 μL and 1% (v/v) final DMSO concentration. […] Plates were then read using a fluorescence plate reader. IC50 values were calculated using XLfit software (IDBS Ltd, Surrey, UK), with the curve fit to model number 205 (sigmoidal dose-response model).
For orientation: In TR-FRET formats the signal depends on donor and acceptor labels being close together.

AURKB (Aurora B), sequence (Q96GD4 whole entry): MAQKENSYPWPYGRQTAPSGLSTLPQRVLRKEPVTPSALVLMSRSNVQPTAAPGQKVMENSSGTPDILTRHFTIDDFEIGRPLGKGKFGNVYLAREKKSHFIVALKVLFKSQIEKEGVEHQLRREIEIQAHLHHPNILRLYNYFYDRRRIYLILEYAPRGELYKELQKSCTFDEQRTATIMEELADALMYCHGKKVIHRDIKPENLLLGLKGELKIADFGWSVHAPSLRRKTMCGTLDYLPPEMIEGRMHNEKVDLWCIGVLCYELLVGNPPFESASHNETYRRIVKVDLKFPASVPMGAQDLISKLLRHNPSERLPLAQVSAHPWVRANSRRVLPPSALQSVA
AURKA (Aurora A), sequence (O14965 whole entry): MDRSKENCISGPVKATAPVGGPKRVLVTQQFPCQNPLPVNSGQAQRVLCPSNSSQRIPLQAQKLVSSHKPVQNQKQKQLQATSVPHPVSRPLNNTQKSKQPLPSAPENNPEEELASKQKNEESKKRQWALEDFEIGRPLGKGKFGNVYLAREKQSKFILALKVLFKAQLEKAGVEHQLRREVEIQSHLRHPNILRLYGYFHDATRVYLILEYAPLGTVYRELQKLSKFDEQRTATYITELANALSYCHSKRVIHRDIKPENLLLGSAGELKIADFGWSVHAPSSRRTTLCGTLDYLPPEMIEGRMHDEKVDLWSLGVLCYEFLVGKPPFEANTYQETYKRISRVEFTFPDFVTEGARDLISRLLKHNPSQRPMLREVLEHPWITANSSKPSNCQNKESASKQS
TTK, sequence (P33981 whole entry): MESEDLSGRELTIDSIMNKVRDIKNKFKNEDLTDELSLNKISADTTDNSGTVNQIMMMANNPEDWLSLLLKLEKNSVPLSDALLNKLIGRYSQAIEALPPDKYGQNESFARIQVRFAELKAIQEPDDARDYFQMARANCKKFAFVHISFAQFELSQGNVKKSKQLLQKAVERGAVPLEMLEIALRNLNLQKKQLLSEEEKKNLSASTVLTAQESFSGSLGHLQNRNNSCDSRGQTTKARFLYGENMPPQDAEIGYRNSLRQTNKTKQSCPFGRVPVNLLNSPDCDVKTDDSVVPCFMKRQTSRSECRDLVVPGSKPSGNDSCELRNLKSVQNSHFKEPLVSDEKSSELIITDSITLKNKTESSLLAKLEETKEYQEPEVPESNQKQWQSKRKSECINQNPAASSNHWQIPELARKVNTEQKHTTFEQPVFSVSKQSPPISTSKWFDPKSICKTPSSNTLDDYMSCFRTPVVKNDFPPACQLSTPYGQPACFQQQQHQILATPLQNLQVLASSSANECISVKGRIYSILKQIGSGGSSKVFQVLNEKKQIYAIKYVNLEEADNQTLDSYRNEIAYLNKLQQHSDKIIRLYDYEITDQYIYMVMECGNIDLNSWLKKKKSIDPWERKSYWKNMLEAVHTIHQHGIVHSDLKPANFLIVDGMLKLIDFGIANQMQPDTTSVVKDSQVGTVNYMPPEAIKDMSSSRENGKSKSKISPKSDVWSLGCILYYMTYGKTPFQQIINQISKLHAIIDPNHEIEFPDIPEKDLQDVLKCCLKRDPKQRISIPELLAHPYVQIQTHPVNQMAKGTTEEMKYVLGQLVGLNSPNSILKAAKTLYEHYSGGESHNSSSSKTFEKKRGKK

Take `Cc1cc2nnccc2cc1Nc1ncc2c(n1)n([C@@H]1CCOC1)c(=O)n2C` [Example 23, (R)-7-methyl-2-((7-methylcinnolin-6-yl)amino)-9-(tetrahydrofuran-3-yl)-7,9-dihydro-8H-purin-8-one]: at AURKB (Aurora B), the “AurB enz pIC50” value was less than 5. The “AurA enz pIC50” value at AURKA (Aurora A) was less than 5. Also, on TTK, the “TTK enz pIC50” value is reported as 5.9.
In the case of `Cc1cc2nccnc2cc1Nc1ncc2c(n1)n([C@@H]1CCOC1)c(=O)n2C` [Example 24, (R)-7-methyl-2-((7-methylquinoxalin-6-yl)amino)-9-(tetrahydrofuran-3-yl)-7,9-dihydro-8H-purin-8-one], the “AurB enz pIC50” value on AURKB (Aurora B) is listed as less than 5. For the same molecule, at AURKA (Aurora A), the “AurA enz pIC50” value was less than 5. Further, the “TTK enz pIC50” value on TTK turned out to be 5.6.
For `Cc1cc2nnccc2cc1Nc1ncc2c(n1)n([C@@H]1CCCOC1)c(=O)n2C` [Example 25, (R)-7-methyl-2-((7-methylcinnolin-6-yl)amino)-9-(tetrahydro-2H-pyran-3-yl)-7,9-dihydro-8H-purin-8-one], at AURKB (Aurora B), the “AurB enz pIC50” value is given as less than 5. Besides, the “AurA enz pIC50” value on AURKA (Aurora A) was less than 5. Further, the “TTK enz pIC50” value at TTK was determined as 6.2.
As for `Cc1cc2nccnc2cc1Nc1ncc2c(n1)n([C@@H]1CCCOC1)c(=O)n2C` [Example 26, (R)-7-methyl-2-((7-methylquinoxalin-6-yl)amino)-9-(tetrahydro-2H-pyran-3-yl)-7,9-dihydro-8H-purin-8-one], the “AurB enz pIC50” value on AURKB (Aurora B) was less than 5. For the same molecule, at AURKA (Aurora A), the “AurA enz pIC50” value is less than 5. The “TTK enz pIC50” value at TTK is given as 5.8.
As for `Cc1cc2nnccc2cc1Nc1ncc2c(n1)n([C@H]1CCCOC1)c(=O)n2C` [Example 27, (S)-7-methyl-2-((7-methylcinnolin-6-yl)amino)-9-(tetrahydro-2H-pyran-3-yl)-7,9-dihydro-8H-purin-8-one], the “AurB enz pIC50” value at AURKB (Aurora B) is given as less than 5. The “AurA enz pIC50” value on AURKA (Aurora A) was less than 5. The “TTK enz pIC50” value at TTK stood at 6.4.
In the case of `Cc1cc2nccnc2cc1Nc1ncc2c(n1)n([C@H]1CCCOC1)c(=O)n2C` [Example 28, (S)-7-methyl-2-((7-methylquinoxalin-6-yl)amino)-9-(tetrahydro-2H-pyran-3-yl)-7,9-dihydro-8H-purin-8-one], the “AurB enz pIC50” value on AURKB (Aurora B) is reported as less than 5. Moreover, on AURKA (Aurora A), the “AurA enz pIC50” value was 5.3. In addition, on TTK, the “TTK enz pIC50” value is listed as 6.1.
With `Cc1cnc2cc(Nc3ncc4c(n3)n(C3CCOCC3)c(=O)n4C)c(C)cc2n1` [Example 33, 2-((2,7-dimethylquinoxalin-6-yl)amino)-7-methyl-9-(tetrahydro-2H-pyran-4-yl)-7,9-dihydro-8H-purin-8-one], the figures for the IC50 on AURKB (Aurora B), at AURKA (Aurora A) and at TTK were greater than 10 µM, greater than 10 µM and 1.26 µM, respectively.
In the case of `Cc1cnc2cc(C)c(Nc3ncc4c(n3)n(C3CCOCC3)c(=O)n4C)cc2n1` [Example 34, 2-((3,7-dimethylquinoxalin-6-yl)amino)-7-methyl-9-(tetrahydro-2H-pyran-4-yl)-7,9-dihydro-8H-purin-8-one], the IC50 is greater than 10 µM on AURKB (Aurora B), greater than 10 µM at AURKA (Aurora A) and 5.01 µM on TTK.
In the case of `Cc1cc2ncccc2cc1Nc1ncc2c(n1)n(C1CCS(=O)(=O)CC1)c(=O)n2C` [Example 35, 9-(1,1-dioxidotetrahydro-2H-thiopyran-4-yl)-7-methyl-2-((7-methylquinolin-6-yl)amino)-7,9-dihydro-8H-purin-8-one], the “AurB enz pIC50” value at AURKB (Aurora B) is listed as less than 5. Besides, the “AurA enz pIC50” value at AURKA (Aurora A) is on record as less than 5. Moreover, the “TTK enz pIC50” value at TTK was 5.9.
As for `Cc1cc2ncccc2cc1Nc1ncc2c(n1)n(C1COC1)c(=O)n2C` [Example 36, 7-methyl-2-((7-methylquinolin-6-yl)amino)-9-(oxetan-3-yl)-7,9-dihydro-8H-purin-8-one], the “AurB enz pIC50” value on AURKB (Aurora B) is less than 5. Further, on AURKA (Aurora A), the “AurA enz pIC50” value was less than 5. Moreover, the “TTK enz pIC50” value at TTK came out at 6.0.
Consider `Cc1cc2ncccc2cc1Nc1ncc2c(n1)n([C@@H]1CCNC[C@@H]1F)c(=O)n2C` [Example 38, 9-((3S,4R)-3-fluoropiperidin-4-yl)-7-methyl-2-((7-methylquinolin-6-yl)amino)-7,9-dihydro-8H-purin-8-one], for which the “AurB enz pIC50” value on AURKB (Aurora B) was less than 5. The “AurA enz pIC50” value on AURKA (Aurora A) was less than 5. Besides, at TTK, the “TTK enz pIC50” value is given as less than 5.1.
On to `Cc1cc2ncccc2cc1Nc1ncc2c(n1)n([C@H]1CC[C@@](C)(N)CC1)c(=O)n2C` [Example 39, 9-((1s,4s)-4-amino-4-methylcyclohexyl)-7-methyl-2-((7-methylquinolin-6-yl)amino)-7,9-dihydro-8H-purin-8-one], for which the IC50 on AURKB (Aurora B) is greater than 10 µM; on AURKA (Aurora A), greater than 10 µM; at TTK it was 3.98 µM.
On to `Cc1cc2ncccc2cc1Nc1ncc2c(n1)n([C@H]1CC[C@](C)(N)CC1)c(=O)n2C` [Example 40, 9-((1r,4r)-4-amino-4-methylcyclohexyl)-7-methyl-2-((7-methylquinolin-6-yl)amino)-7,9-dihydro-8H-purin-8-one], for which the IC50 on AURKB (Aurora B) was greater than 10 µM; at AURKA (Aurora A) it was greater than 10 µM; on TTK, 1.58 µM.
As to `Cc1cc2ncccc2cc1Nc1ncc2c(n1)n([C@@H]1CCN(C)C[C@@H]1F)c(=O)n2C` [Example 46, 9-((3S,4R)-3-fluoro-1-methylpiperidin-4-yl)-7-methyl-2-((7-methylquinolin-6-yl)amino)-7,9-dihydro-8H-purin-8-one], the “AurB enz pIC50” value on AURKB (Aurora B) is listed as less than 5. Moreover, the “AurA enz pIC50” value at AURKA (Aurora A) was less than 5. Besides, the “TTK enz pIC50” value at TTK is listed as 5.4.
As for `Cc1cc2ncccc2cc1Nc1ncc2c(n1)n(C1CCN(C3COC3)CC1)c(=O)n2C` [Example 47, 7-methyl-2-((7-methylquinolin-6-yl)amino)-9-(1-(oxetan-3-yl)piperidin-4-yl)-7,9-dihydro-8H-purin-8-one], the “AurB enz pIC50” value on AURKB (Aurora B) is listed as less than 5. In addition, the “AurA enz pIC50” value at AURKA (Aurora A) was less than 5. Further, the “TTK enz pIC50” value at TTK was determined as 5.8.
As to `Cc1cc2ncccc2cc1Nc1ncc2c(n1)n(C1CCN(CCO)CC1)c(=O)n2C` [Example 48, 9-(1-(2-hydroxyethyl)piperidin-4-yl)-7-methyl-2-((7-methylquinolin-6-yl)amino)-7,9-dihydro-8H-purin-8-one], the “AurB enz pIC50” value on AURKB (Aurora B) is recorded as less than 5. Moreover, the “AurA enz pIC50” value on AURKA (Aurora A) is given as less than 5. In addition, at TTK, the “TTK enz pIC50” value was 5.9.
With `COCCN1CCC(n2c(=O)n(C)c3cnc(Nc4cc5cccnc5cc4C)nc32)CC1` [Example 49, 9-(1-(2-methoxyethyl)piperidin-4-yl)-7-methyl-2-((7-methylquinolin-6-yl)amino)-7,9-dihydro-8H-purin-8-one], the “AurB enz pIC50” value on AURKB (Aurora B) was less than 5. In addition, the “AurA enz pIC50” value on AURKA (Aurora A) was less than 5. For the same molecule, the “TTK enz pIC50” value on TTK came out at 5.7.
Turning to `CCN1CCC(n2c(=O)n(C)c3cnc(Nc4cc5cccnc5cc4C)nc32)CC1` [Example 50, 9-(1-ethylpiperidin-4-yl)-7-methyl-2-((7-methylquinolin-6-yl)amino)-7,9-dihydro-8H-purin-8-one], the “AurB enz pIC50” value on AURKB (Aurora B) is reported as less than 5. The “AurA enz pIC50” value at AURKA (Aurora A) is less than 5. For the same molecule, the “TTK enz pIC50” value at TTK is 5.2.
For the molecule `CC(=O)N1CCC(n2c(=O)n(C)c3cnc(Nc4cc5cccnc5cc4C)nc32)CC1` [Example 51, 9-(1-acetylpiperidin-4-yl)-7-methyl-2-((7-methylquinolin-6-yl)amino)-7,9-dihydro-8H-purin-8-one], the “AurB enz pIC50” value on AURKB (Aurora B) was less than 5. Moreover, the “AurA enz pIC50” value at AURKA (Aurora A) is given as less than 5. At TTK, the “TTK enz pIC50” value is given as 6.4.
